One molecule from patent publication US20260275299A1, “Bioprinted Three-Dimensional Tumor Model” (ASOCIACIÓN CENTRO DE INVESTIGACIÓN EN BIOMATERIALES - CIC …, priority 2023, published 2026) can be followed below.

This test deals with MCF-7 tumor models. The experiment in a line: Live/dead staining of drug-treated 3D tumor models. It is filed as cell-based, human. The following applies: 200 μM, compared to negative and positive controls.

Experimental: To assess cell viability in both the core tumor model and the 3D breast tumor model with the stromal compartment, calcein (targets live cells in green) and propidium iodide (targets dead cells in red) were added to the cell culture medium of the 3D constructs at a 1:100 concentration.

`CC/C(=C(\c1ccccc1)c1ccc(OCCN(C)C)cc1)c1ccccc1` [Tamoxifen]: the live/dead staining result is on record as “Dead cells are observed in the outer regions of the models”.
